Source: BindingDB's records for PubMed 36473699 (Cnrs, 2022)

Experiment: Inhibition of Mycobacterium smegmatis MC2 155 recombinant type II NADH dehydrogenase ndh expressed in Escherichia coli assessed as rate of NADH oxidation in the presence of an electron acceptor menadione

Structure (SMILES) | IC50 [µM]
COc1ccc(CN2CC[C@]34OC[C@H](C(C)C)N3C(=O)CC[C@@H]4C2)cc1 | 0.89
CC(C)[C@H]1CO[C@]23CCN(Cc4ccc(Cl)cc4)C[C@H]2CCC(=O)N13 | 0.042
CC(C)[C@H]1CO[C@]23CCN(Cc4ccc(C(F)(F)F)nc4)C[C@H]2CCC(=O)N13 | 0.088
